Measured values as given in patent US20090325202A1, “Methods for Developing and Assessing Therapeutic Agents” (priority 2006, published 2009).

What was measured:
S6-RP = assay: Ex vivo FNAB drug sensitivity assay, S6-RP phosphorylation by Western blot; format: cell-based, human
Method: Tumor cells were collected by FNAB from the xenograft animals before the start of treatment using a sterile 25G short needle. Tumor samples were immediately transferred into 10 ml sterile prewarmed complete RPMI-1640 culture medium containing 10% FBS, penicillin (200 μg/ml), and streptomycin (200 μg/ml). Cells were incubated with 0.04% trypan blue (Sigma) dissolved in PBS (9.1 mM Na2HPO4, 1.7 mM NaH2PO4, and 150 mM NaCl, pH 7.4). The viable (membrane-intact) and dead cells were then counted using Neubauer hemocytometer and the total viable cell count was used to calculate final working volumes. Approximately 25,000 viable tumor cells were seeded into each well of a 6-well polypropylene microplate. Cells were treated in duplicates with vehicle (control), erlotinib (5 μM) or temsirolimus (1 μM) in a humidified 5% CO2 incubator at 37° C. for 6 hours. No fibroblast and endothelial cell growth was observed. Following treatment, non-adherent and adherent cells (only a few, collected by scraping) were pooled together and centrifuged at 500×g for 5 min at 4° C. After washing with PBS, cells were lysed in 100 μL of ice-cold lysis buffer (50 mM Tris-HCl, 0.25M NaCl, 0.1% (v/v) Triton X-100, 1 mM EDTA, 50 mM NaF, and 0.1 mM Na3VO4, pH 7.4) containing protease and phosphatase inhibitors (Roche Molecular Biochemicals) and analyzed by Western blot.
Protein concentrations obtained from FNAB samples were quantified before each experiment. Protein extracts (15 μg) were electrophoresed on a 10% (w/v) SDS-polyacrylamide gel. After electrotransfer to Immobilon-P membranes (Millipore), membranes were blocked at room temperature using SuperBlock (Pierce) for one hour. The primary antibodies were diluted at 1:1000 in 1:10 dilution of SuperBlock solution and the membranes were incubated with primary antibodies overnight at 4° C. The antibodies tested were phospho-ERK1/2 (Cell signal #9101), phospho-S6 Ribosomal Protein (Cell Signaling Technology, Beverly, Mass.) and total ERK1/2 (Cell Signaling Technology, Beverly, Mass.) and total S6 Ribosomal Protein (Cell Signaling Technology, Beverly, Mass.). The next day, the membranes were washed and incubated for 1 h at room temperature with horseradish peroxidase (HRP)-conjugated secondary antibodies, rabbit IgG-HRP (Santa Cruz Biotechnology), or mouse IgG-HRP (Santa Cruz Biotechnology) at a final dilution of 1:3000. […]
To test if tumor cells obtained by FNAB can be used in the ex vivo assays to predict tumor response in vivo, 25,000 viable cancer cells, as determined by trypan blue dye exclusion, were treated with erlotinib or temsirolimus for six hours, after which signal pathway inhibition was analyzed by Western blot. Under these cell culture conditions no fibroblast and endothelial cell growth was detected (data not shown). […]

p70S6K = assay: IHC staining of phospho-p70S6K in resected xenograft tumor tissue; format: in vivo, human
Method: At the completion of the treatment course, xenografted tissues were harvested and fixed in formalin for 24 hrs. The fixed tissues were paraffin-embedded and cut in 0.5 micron sections onto positively-charged glass slides for immunohistochemical (IHC) labeling. Analysis was performed to determine the IHC pharmacodynamic effects of the drug in the targeted pathway. For IHC staining, slides were deparaffinized and rehydrated in graded concentrations of alcohol by standard techniques before antigen retrieval in citrate buffer pH 6.0 for 20 minutes. Next, the slides were cooled for 20 minutes before washing in 1× TBST (Dako Corp. Carpinteria, Calif.). All staining was performed using a DAKO Autostainer at room temperature. Slides were incubated in 3% H2O2 for 10 minutes, followed by the appropriate dilution of primary antibody for 60 minutes. Tris-HCl (0.2M, pH 7.5) (Quality Biological, Inc, Gaithersburg, Md.) was used as the antibody diluent solution. Dilutions of antibodies used were as follows: Total ERK1/2 (Cell Signaling Technology, Beverly, Mass.) 1:25, p-ERK1/2 (Thr202/Tyr204) (Cell Signaling Technology, Beverly, Mass.) 1:50, p70S6K (Santa Cruz Biotechnology) 1:50, and pp70S6K (Cell Signaling Technology, Beverly, Mass.) 1:50. […]

[1] = tested on: Panc 265 human pancreas cancer xenograft; assay: Panc 265 xenograft tumor growth; format: in vivo, nude mice; details: CCI-779 20 mg/kg days 1-5 i.p.
Excerpt: Tumor tissue was then cut into slices (5×5×0.5−1 mm diameter) and implanted subcutaneously into nude mice. Tumor slices averaging 5×5×0.5−1 mm diameter from the patient, or 3×3×0.5−1 mm dia in serial passage were implanted subcutaneously into both flanks of nude mice. Tumors were removed under sterile conditions/laminar flow and reimplanted subcutaneously in groups of 5 mice. When the tumors on second passage of each group reached 1.5 cm, they were excised and cut into pieces of 3×3×3 mm, and transplanted on another 35-40 mice.
For the in vivo assessment experiments, treatment started when the mean tumor volumes reach approximately 200 mm.
To obtain cancer cells, each animal tumor was sampled as described above. […] At day 7 of therapy, AD/DQ slides were prepared from tumor FNAB samples to retrospectively correlate the results of in vivo and ex vivo chemosentitivty tests from the same xenograft animal.

## CO[C@H]1C[C@@H]2CC[C@@H](C)[C@@](O)(O2)C(=O)C(=O)N2CCCC[C@H]2C(=O)O[C@H]([C@H](C)C[C@@H]2CC[C@@H](OC(=O)C(C)(CO)CO)[C@H](OC)C2)CC(=O)[C@H](C)/C=C(\C)[C@@H](O)[C@@H](OC)C(=O)[C@H](C)C[C@H](C)/C=C/C=C/C=C/1C [temsirolimus, Temsirolimus]
S6-RP; all tumors of the xenograft panel sensitive to therapy, temsirolimus 1 μM, 6 hours
  S6-RP phosphorylation ex vivo: blocked S6-RP phosphorylation
S6-RP; cancer cells from pancreatic cancer patient 1, six hours
  S6-RP phosphorylation ex vivo: only partially decreased S6-RP phosphorylation
S6-RP; cells from tumor A198, temsirolimus 1 μM, 6 hours
  phosphorylation of S6-RP ex vivo: inhibited phosphorylation of S6-RP
S6-RP; tumor cells of pancreatic cancer patient 2 and 3, six hours
  S6-RP phosphorylation ex vivo: inhibited S6-RP phosphorylation
p70S6K; tumor A194, in vivo treated with temsirolimus
  IHC staining for phosphorylated p70S6K: no effect
p70S6K; tumor A198, in vivo treated with temsirolimus
  IHC staining for phosphorylated p70S6K: strongly decreased staining
[1]
  inhibition of tumor growth: 70%
